Source: the supplement of paper PMC10307832

Assays:
Assay in all cases: relative viability (nuclei count vs DMSO), 5 days (fraction); higher = more cells survive
[1] = compound: CC[C@@H](C)CNCC(=O)N1CCC2=C([C@@H]1COC3=CC=CC(=C3)C)C=CS2 [RU-SKI 43] + O=C(c1cc(Cc2n[nH]c(=O)c3ccccc23)ccc1F)N1CCN(C(=O)C2CC2)CC1 [Olaparib] (partner 8 µM)
In short: (§1)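 After 5 days of treatment, lung cancer cells in 1536-well plates were fixed and stained in a single step (final 0.05% Triton X-100, 1% formaldehyde, 1 ug/ml Hoechst) and their nuclei counted on 4× images. Treatment had been applied by pin tool the day after seeding as one drug alone or as a fixed anchor-drug dose with five library-drug doses (not always all listed) in √10 steps. Relative viability is the nuclei count of treated wells divided by that of vehicle wells, and values are medians of duplicate plates.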

[2] = compound: CCc1c2c(nc3ccc(OC(=O)N4CCC(N5CCCCC5)CC4)cc13)-c1cc3c(c(=O)n1C2)COC(=O)[C@]3(O)CC [Irinotecan] + Cc1nc(NC(=O)N2CCC[C@H]2C(N)=O)sc1-c1ccnc(C(C)(C)C(F)(F)F)c1 [Alpelisib] (partner 2 µM)
In short: as §1

[3] = compound: CC[C@@H](C)CNCC(=O)N1CCC2=C([C@@H]1COC3=CC=CC(=C3)C)C=CS2 [RU-SKI 43] + C[C@]1(O)C[C@@H](c2nc(-c3ccc4ccc(-c5ccccc5)nc4c3)c3c(N)nccn32)C1 [Linsitinib] (partner 1 µM)
In short: as §1

[4] = compound: CCc1c2c(nc3ccc(OC(=O)N4CCC(N5CCCCC5)CC4)cc13)-c1cc3c(c(=O)n1C2)COC(=O)[C@]3(O)CC [Irinotecan] + Cc1nc(Nc2ncc(C(=O)Nc3c(C)cccc3Cl)s2)cc(N2CCN(CCO)CC2)n1 [Dasatinib] (partner 0.075 µM)
In short: as §1

Cell Line | relative viability ([1]; first compound 0.1 µM) | relative viability ([1]; first compound 0.3162 µM) | relative viability ([1]; first compound 1 µM) | relative viability ([1]; first compound 3.162 µM) | relative viability ([1]; first compound 10 µM) | relative viability ([2]; first compound 0.6325 µM) | relative viability ([2]; first compound 2 µM) | relative viability ([2]; first compound 6.325 µM) | relative viability ([2]; first compound 20 µM) | relative viability ([3]; first compound 0.1 µM) | relative viability ([3]; first compound 0.3162 µM) | relative viability ([3]; first compound 1 µM) | relative viability ([3]; first compound 3.162 µM) | relative viability ([3]; first compound 10 µM) | relative viability ([4]; first compound 0.6325 µM) | relative viability ([4]; first compound 2 µM) | relative viability ([4]; first compound 6.325 µM) | relative viability ([4]; first compound 20 µM)
HCC-44 | 0.984 | 0.981 | 1.06 | 1.06 | 0.954 | 0.669 | 0.347 | 0.28 | 0.313 | 0.595 | 0.647 | 0.835 | 0.69 | 0.645 | – | – | – | –
NCI-H441 | 0.709 | 0.576 | 0.627 | 0.736 | 0.542 | 0.68 | 0.513 | 0.336 | 0.5 | 0.538 | 0.462 | 0.654 | 0.533 | 0.473 | 0.461 | 0.577 | 0.286 | 0.22
Calu-6 | 0.555 | 0.621 | 0.622 | 0.615 | 0.499 | 0.826 | 0.543 | 0.291 | 0.119 | 0.942 | 1.05 | 0.999 | 0.929 | 1.02 | – | – | – | –
CAL-12T | 0.709 | 0.804 | 0.855 | 0.666 | 0.698 | 1.08 | 1.19 | 0.422 | 0.309 | 0.726 | 0.873 | 0.877 | 0.827 | 0.771 | – | 0.513 | 0.29 | 0.095
HCC-78 | 0.849 | 1.02 | 0.767 | 0.868 | 0.856 | 0.38 | 0.248 | 0.195 | 0.211 | 0.576 | 0.551 | 0.712 | 0.344 | 0.551 | 0.394 | 0.384 | 0.214 | 0.24
NCI-H2170 | 0.587 | 0.683 | 0.599 | 0.61 | 0.59 | 0.929 | 0.399 | 0.3 | 0.216 | – | – | – | – | – | 0.563 | 0.663 | 0.281 | 0.164
NCI-H1623 | – | – | – | – | – | – | – | – | – | – | – | – | – | – | 0.391 | 0.442 | 0.214 | 0.22
NCI-H23 | 0.28 | 0.263 | 0.292 | 0.326 | 0.279 | 0.519 | 0.421 | 0.246 | 0.243 | 0.646 | 0.541 | 0.652 | 0.724 | 0.572 | 0.563 | 0.679 | 0.274 | 0.231
COR-L 105 | 0.658 | 0.57 | 0.815 | 0.683 | 0.603 | 1.08 | 1.18 | 0.648 | 0.444 | 0.955 | 1.08 | 1.02 | 1.08 | 0.945 | 0.376 | 0.42 | 0.333 | 0.182
LOU-NH91 | 0.908 | 0.94 | 0.973 | 0.926 | 0.879 | 0.663 | 0.596 | 0.422 | 0.301 | 0.94 | 0.932 | 0.945 | 0.872 | 0.944 | 0.525 | 0.548 | 0.31 | 0.361
